Data taken from PubChem BioAssay (NCI).
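Dose response: 5 concentrations. Exposure: 48 h. Format: 96-well plates. Endpoint: linear interpolation; highest concentration if not reached. TGI: total growth inhibition.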

Key:
Assay in all cases: NCI anticancer screen, dose series, 48 h
A549 NSCLC = test system: A549 NSCLC
COLO 205 colon = test system: COLO 205 colon
IGROV1 ovarian = test system: IGROV1 ovarian
K-562 leukemia = test system: K-562 leukemia
MCF7 breast = test system: MCF7 breast
MOLT-4 leukemia = test system: MOLT-4 leukemia
NCI-H522 lung = test system: NCI-H522 lung
OVCAR-4 ovarian = test system: OVCAR-4 ovarian
SF-268 CNS = test system: SF-268 CNS
SR leukemia = test system: SR leukemia

O=[N+]([O-])c1cc2oc(CSc3ccccc3)nc2cc1Cl
TGI (A549 NSCLC): > 100 µM | TGI (COLO 205 colon): 44.9 µM | TGI (IGROV1 ovarian): > 100 µM | TGI (K-562 leukemia): > 100 µM | TGI (MCF7 breast): > 100 µM | TGI (MOLT-4 leukemia): > 100 µM | TGI (NCI-H522 lung): > 100 µM | TGI (OVCAR-4 ovarian): > 100 µM | TGI (SF-268 CNS): > 100 µM | TGI (SR leukemia): > 100 µM

N#Cc1sc2c(c1OC(=O)c1ccc(C(F)(F)F)cc1)c(=O)n(-c1ccccc1)c(=S)n2-c1ccccc1
TGI (A549 NSCLC): > 100 µM | TGI (COLO 205 colon): 46.4 µM | TGI (IGROV1 ovarian): 56.2 µM | TGI (K-562 leukemia): > 100 µM | TGI (MCF7 breast): > 100 µM | TGI (MOLT-4 leukemia): 52.7 µM | TGI (NCI-H522 lung): 3.51 µM | TGI (OVCAR-4 ovarian): > 100 µM | TGI (SF-268 CNS): > 100 µM

Cc1ccsc1/C=N/Nc1cnccn1
TGI (A549 NSCLC): > 100 µM | TGI (COLO 205 colon): > 100 µM | TGI (IGROV1 ovarian): > 100 µM | TGI (K-562 leukemia): > 100 µM | TGI (MCF7 breast): > 100 µM | TGI (MOLT-4 leukemia): > 100 µM | TGI (OVCAR-4 ovarian): > 100 µM | TGI (SF-268 CNS): > 100 µM

CC1(C)C=CC(=O)C(O)C(C)(C)C1=O (stereo unspecified)
TGI (A549 NSCLC): > 100 µM | TGI (COLO 205 colon): > 100 µM | TGI (IGROV1 ovarian): > 100 µM | TGI (K-562 leukemia): > 100 µM | TGI (MOLT-4 leukemia): 69.7 µM | TGI (NCI-H522 lung): 89.4 µM | TGI (OVCAR-4 ovarian): > 100 µM | TGI (SF-268 CNS): > 100 µM

C[C@@H]1CCC2[C@@H](C)[C@@H](O[C@H]3O[C@@H]4O[C@@]5(C)CCC6[C@H](C)CCC([C@H]3C)[C@]64OO5)O[C@@H]3O[C@@]4(C)CCC1[C@@]23OO4 (stereo partly specified)
TGI (A549 NSCLC): > 25 µM | TGI (COLO 205 colon): > 25 µM | TGI (IGROV1 ovarian): > 25 µM | TGI (K-562 leukemia): > 25 µM | TGI (MCF7 breast): > 25 µM | TGI (MOLT-4 leukemia): > 25 µM | TGI (NCI-H522 lung): > 25 µM | TGI (OVCAR-4 ovarian): > 25 µM | TGI (SF-268 CNS): > 25 µM | TGI (SR leukemia): > 25 µM

C=C(C)CNCCN
TGI (A549 NSCLC): > 100 µM | TGI (IGROV1 ovarian): > 100 µM | TGI (K-562 leukemia): > 100 µM | TGI (MOLT-4 leukemia): > 100 µM | TGI (NCI-H522 lung): > 100 µM | TGI (OVCAR-4 ovarian): > 100 µM | TGI (SF-268 CNS): > 100 µM | TGI (SR leukemia): > 100 µM

CC(C)(C)c1ccc2c(c1)C#Cc1cc3c(cc1OCCCO2)C#Cc1cc(C(C)(C)C)ccc1OCCCO3
TGI (A549 NSCLC): > 100 µM | TGI (COLO 205 colon): > 100 µM | TGI (IGROV1 ovarian): > 100 µM | TGI (K-562 leukemia): > 100 µM | TGI (MCF7 breast): > 100 µM | TGI (MOLT-4 leukemia): > 100 µM | TGI (NCI-H522 lung): > 100 µM | TGI (OVCAR-4 ovarian): > 100 µM | TGI (SF-268 CNS): > 100 µM

O[C@H]1[C@H](O)[C@@H](O)CN2CC[C@H](O)[C@H]12
TGI (A549 NSCLC): > 100 µM | TGI (COLO 205 colon): > 100 µM | TGI (IGROV1 ovarian): > 100 µM | TGI (K-562 leukemia): > 100 µM | TGI (MCF7 breast): > 100 µM | TGI (MOLT-4 leukemia): > 100 µM | TGI (NCI-H522 lung): > 100 µM | TGI (OVCAR-4 ovarian): > 100 µM | TGI (SF-268 CNS): > 100 µM

Cn1ncc2c(NCc3ccccc3)ncnc21
TGI (A549 NSCLC): > 100 µM | TGI (COLO 205 colon): > 100 µM | TGI (IGROV1 ovarian): > 100 µM | TGI (K-562 leukemia): > 100 µM | TGI (MCF7 breast): > 100 µM | TGI (MOLT-4 leukemia): > 100 µM | TGI (OVCAR-4 ovarian): > 100 µM | TGI (SF-268 CNS): > 100 µM | TGI (SR leukemia): > 100 µM

CN(C)Cc1cc(C(=O)/C=C/c2ccc([N+](=O)[O-])cc2)cc(CN(C)C)c1O
TGI (A549 NSCLC): 89 µM | TGI (COLO 205 colon): 4.67 µM | TGI (IGROV1 ovarian): 35.6 µM | TGI (K-562 leukemia): > 100 µM | TGI (MCF7 breast): 34.9 µM | TGI (MOLT-4 leukemia): 51.2 µM | TGI (NCI-H522 lung): 20.1 µM | TGI (SF-268 CNS): 42.9 µM | TGI (SR leukemia): 22.2 µM

COc1cc(Nc2ccc3c(c2)CCC3)nc(OC)n1
TGI (A549 NSCLC): > 100 µM | TGI (COLO 205 colon): > 100 µM | TGI (IGROV1 ovarian): > 100 µM | TGI (MCF7 breast): > 100 µM | TGI (NCI-H522 lung): 84.5 µM | TGI (OVCAR-4 ovarian): > 100 µM | TGI (SF-268 CNS): > 100 µM | TGI (SR leukemia): 77.8 µM

Cc1c2c(c(C)n1-c1ccccc1)C(=O)N(CCN1CCN(c3cccc(C(F)(F)F)c3)CC1)C2=O
TGI (A549 NSCLC): > 100 µM | TGI (COLO 205 colon): > 100 µM | TGI (IGROV1 ovarian): > 100 µM | TGI (K-562 leukemia): > 100 µM | TGI (MCF7 breast): > 100 µM | TGI (MOLT-4 leukemia): > 100 µM | TGI (NCI-H522 lung): > 100 µM | TGI (OVCAR-4 ovarian): > 100 µM | TGI (SF-268 CNS): > 100 µM

N#CC(c1ccccc1)N(CCOCCOCCN(C(=O)c1ccccc1)C(C#N)c1ccccc1)C(=O)c1ccccc1 (stereo unspecified)
TGI (A549 NSCLC): > 100 µM | TGI (COLO 205 colon): > 100 µM | TGI (IGROV1 ovarian): > 100 µM | TGI (K-562 leukemia): > 100 µM | TGI (MCF7 breast): > 100 µM | TGI (MOLT-4 leukemia): > 100 µM | TGI (OVCAR-4 ovarian): > 100 µM | TGI (SF-268 CNS): > 100 µM

O=C(CC(=O)Nc1ccccc1)NNC(Sc1ccccc1)c1cc(N=Nc2ccc(Br)cc2)ccc1O (stereo unspecified)
TGI (A549 NSCLC): > 10 µM | TGI (COLO 205 colon): > 10 µM | TGI (IGROV1 ovarian): > 10 µM | TGI (K-562 leukemia): 6.27 µM | TGI (MCF7 breast): > 10 µM | TGI (MOLT-4 leukemia): > 10 µM | TGI (NCI-H522 lung): > 10 µM | TGI (OVCAR-4 ovarian): > 10 µM | TGI (SF-268 CNS): 8.9 µM | TGI (SR leukemia): > 10 µM

Cc1cc(OP2(=O)NCc3ncccc3O2)ccc1Cl (stereo unspecified)
TGI (A549 NSCLC): > 100 µM | TGI (COLO 205 colon): > 100 µM | TGI (IGROV1 ovarian): > 100 µM | TGI (K-562 leukemia): > 100 µM | TGI (MCF7 breast): > 100 µM | TGI (MOLT-4 leukemia): > 100 µM | TGI (OVCAR-4 ovarian): > 100 µM | TGI (SR leukemia): > 100 µM

COc1cc(C=O)ccc1O
TGI (A549 NSCLC): > 100 µM | TGI (COLO 205 colon): > 100 µM | TGI (IGROV1 ovarian): > 100 µM | TGI (K-562 leukemia): > 100 µM | TGI (MCF7 breast): > 100 µM | TGI (MOLT-4 leukemia): > 100 µM | TGI (NCI-H522 lung): > 100 µM | TGI (OVCAR-4 ovarian): > 100 µM | TGI (SF-268 CNS): > 100 µM | TGI (SR leukemia): > 100 µM

O=C1NC(O)CCN1C1OC(CO)C(O)C1O (stereo unspecified)
TGI (A549 NSCLC): > 250 µM | TGI (COLO 205 colon): > 250 µM | TGI (IGROV1 ovarian): > 250 µM | TGI (K-562 leukemia): > 250 µM | TGI (MCF7 breast): > 250 µM | TGI (MOLT-4 leukemia): > 250 µM | TGI (NCI-H522 lung): 247 µM | TGI (OVCAR-4 ovarian): > 250 µM | TGI (SF-268 CNS): > 250 µM

COc1cc(C2c3cc4c(cc3[C@@H](Nc3ccccc3)C3COC(=O)[C@H]23)OCO4)cc(OC)c1O (stereo partly specified)
TGI (A549 NSCLC): 1.82 µM | TGI (COLO 205 colon): 5.66 µM | TGI (IGROV1 ovarian): 17.5 µM | TGI (K-562 leukemia): 9.32 µM | TGI (MCF7 breast): > 41.2 µM | TGI (MOLT-4 leukemia): 0.13 µM | TGI (NCI-H522 lung): 3.7 µM | TGI (OVCAR-4 ovarian): 34.6 µM | TGI (SF-268 CNS): 13.2 µM

CCOC(=O)CNC(=O)NC12CC3CC(CC(C3)C1)C2
TGI (A549 NSCLC): > 550 µM | TGI (COLO 205 colon): 363 µM | TGI (IGROV1 ovarian): > 550 µM | TGI (K-562 leukemia): > 550 µM | TGI (MCF7 breast): 505 µM | TGI (MOLT-4 leukemia): > 550 µM | TGI (NCI-H522 lung): > 536 µM | TGI (OVCAR-4 ovarian): > 550 µM | TGI (SF-268 CNS): > 550 µM

COC1OC2COC(c3ccccc3)OC2C(O)C1OC(=S)c1ccccc1 (stereo unspecified)
TGI (A549 NSCLC): > 100 µM | TGI (COLO 205 colon): 33 µM | TGI (IGROV1 ovarian): > 100 µM | TGI (K-562 leukemia): > 100 µM | TGI (MCF7 breast): > 100 µM | TGI (MOLT-4 leukemia): > 100 µM | TGI (OVCAR-4 ovarian): > 100 µM | TGI (SF-268 CNS): > 100 µM | TGI (SR leukemia): 85.5 µM

C/C1=C\[C@H](C)C[C@H](C)OC(=O)[C@H](C)NC(=O)[C@@H](Cc2ccc(O)c(Br)c2)N(C)C(=O)[C@H](C)NC(=O)[C@@H](C)C1
TGI (A549 NSCLC): > 25 µM | TGI (COLO 205 colon): > 25 µM | TGI (IGROV1 ovarian): 0.105 µM | TGI (K-562 leukemia): > 25 µM | TGI (MCF7 breast): > 25 µM | TGI (MOLT-4 leukemia): > 19.5 µM | TGI (NCI-H522 lung): 1.35 µM | TGI (OVCAR-4 ovarian): 1.92 µM | TGI (SF-268 CNS): 1.57 µM

CC1=C(C#N)c2nc3ccccc3n2C(=O)C1(C)CCO (stereo unspecified)
TGI (A549 NSCLC): > 100 µM | TGI (COLO 205 colon): > 100 µM | TGI (IGROV1 ovarian): > 100 µM | TGI (K-562 leukemia): > 100 µM | TGI (MCF7 breast): > 100 µM | TGI (NCI-H522 lung): > 100 µM | TGI (OVCAR-4 ovarian): > 100 µM | TGI (SF-268 CNS): > 100 µM | TGI (SR leukemia): > 100 µM
